# Reference: patent US20180354909A1, “SUBSTITUTED BENZIMIDAZOLIUM, PYRIDO-IMIDAZOLIUM, OR PYRAZINO-IMIDAZOLIUM COMPOUNDS AS CHEMOTHERAPEUTICS” (The Board of Regents of the University of Texas System, priority 2015, published 2018)
# Assays:
# [1] = Buffer (saline) stability; type: physicochemical
# Experimental: (§1) 12M11 (2 μM final concentration) was incubated with murine plasma and saline for 0-1440 minutes. Reactions were quenched with 200 μl (1:2) of methanol containing 0.1% formic acid and 200 ng/ml IS (IS final conc.=100 ng/mL). Samples were vortexed for 15 seconds, incubated at RT for 10 minutes and spun for 5 minutes at 13.2K rpm. Supernatant ([…]) was then transferred to an eppendorf tube and spun in a table top, chilled centrifuge for 5 minutes at 13.2K rpm. Supernatant (800 μL) was transferred to an HPLC vial (w/out insert). Analyzed by Qtrap 3200 mass spectrometer. These methods were used data obtained in the FIGS. 22C and 22F.
# [2] = In vitro plasma half-life; type: in vitro ADME; conditions: murine plasma; for half-life at 2 μM: mouse, plasma, read-out: Plasma T1/2 (converted)
# Experimental: as §1
# [3] = tested on: Mut6; assay: Cytotox testing (CellTiter-Glo ATP assay) in Mut6 cells; type: cell-based, mouse; conditions: CellTiter-Glo; for EC50: Mus musculus, 96 h, Mut6 cells, 4 days, read-out: Activity in Mut6 [EC50]
# Experimental: (§2) Mut6 tumor cells were cultured in DMEM/F12 media supplemented by EGF (10 ng/mL), basic FGF (10 ng/mL), heparin (4 ug/mL), glucose (total 21 mM), NaHCO3 (113 μg/mL), Hepes (119 μg/mL), glutamine (2 mM), sodium pyruvate (1 mM), N2 supplement (ThermoFisher Gibco 17502-048, 100×, at 100-fold dilution), B27 supplement (ThermoFisher Gibco 12587-010, 50×, at 100-fold dilution), and penicillin/streptomycin (ThermoFisher, final 1%). Cells were maintained in Ultra-low attachment plate (Corning) as sphere-forming cells. For ATP assays and protein/RNA isolation, cells were plated into 96-well plates or 6-well plated that were coated with poly-lysine (Sigma P6407, 10 μg/mL in PBS, 4 hr at 37° C.) and laminin (ThermoFisher 23017015, ˜5 mg/L in PBS, overnight at 37° C.). MEFs and Astrocytes were cultured in DMEM supplemented with 10% FBS and 1% Penicillin/Streptomycin.
# 2,000 cells were plated into each well of 96-well plates. About 3 hours later, cells were treated by 12M11, at 800-fold dilution (4 mM stock was diluted into 5 μM final concentration). […] CellTiter-Glo assay (Promega) was performed according to manufacturer's instructions, by adding 20 μL of reagent into each well. Luminescence signal was detected by the PolarStar plate reader (BMG Labtech). Experiments were performed in quadruplicate, and results are presented with mean average −/+ standard deviation. EC505 were calculated by GraphPad Prism6 software.
# The compounds described herein were tested using a cell-based cytotoxicity assay against neuronal stem cells in Mut6, which is a mouse glioblastoma model cell line.
# [4] = Murine S9 half-life; type: in vitro ADME; conditions: mouse, S9 fraction; murine S9, Phase I cofactors; read-out: S9 T1/2
# Experimental: 22D. […] (2 mM in DMSO) was incubated with Murine S9 (Lot KWB) fraction and Phase I (NADPH Regenerating System) cofactors for 0-240 minutes. Reactions were quenched with 1 mL (1:1) of methanol containing 0.2% formic acid and 100 ng/ml IS (IS final conc.=50 ng/mL). Samples were vortexed for 15 seconds, incubated at RT for 10 minutes and spun for 5 minutes at 2400 rpm. Supernatant (1 mL) was then transferred to an eppendorf tube and spun in a table top, chilled centrifuge for 5 minutes at 13.2K rpm. Supernatant (800 uL) was transferred to an HPLC vial (w/out insert). Analyzed by Qtrap 3200 mass spectrometer. These methods were used data obtained in the FIGS. 22A and 22D.
# [5] = tested on: astrocytes; assay: Cytotox testing (CellTiter-Glo) in astrocytes; type: cell-based
# Experimental: as §2
# 2,000 cells were plated into each well of 96-well plates. About 3 hours later, cells were treated by 12M11, at 800-fold dilution (4 mM stock was diluted into 5 μM final concentration). Cells were further incubated for 4 days. CellTiter-Glo assay (Promega) was performed according to manufacturer's instructions, by adding 20 μL of reagent into each well. Luminescence signal was detected by the PolarStar plate reader (BMG Labtech). Experiments were performed in quadruplicate, and results are presented with mean average −/+ standard deviation. EC505 were calculated by GraphPad Prism6 software.
# [6] = tested on: mitochondrial membrane potential; assay: TMRE mitochondrial membrane potential staining in Mut6 cells; type: cell-based, mouse; conditions: within 30 min
# Experimental: TMRE mitochondrial membrane potential assay kit was purchased from Abcam (113852) and the assay was performed according to the manufacturer's protocol. Briefly, cells were pre-incubated with 1 μM 12M11 (10 min or 18 hrs) or 100 nM FCCP (10 min) and incubated for additional 20 min with 200 nM TMRE before pictures were taken.
# [7] = tested on: MEF; assay: Change in ATP levels in MEF cells; type: cell-based, mouse; conditions: 2-6 hr
# Experimental: (§3) Mut6 tumor cells or MEFs were plated into 96-well plates. One day later, Oligomyin (2 μM), Rotenone (200 nM), or 12M11 (1 μM) were added into each well and then ATP levels were measured by Cell-Titer Glo (Promega) after 2 hr, 4 hr, or 6 hr incubation. Each data is mean of six replicates with ± standard deviation.
# [8] = tested on: Mut6; assay: Change in ATP levels in Mut6 cells; type: cell-based, mouse; conditions: Mut6, 2-6 hr
# Experimental: as §3
# [9] = tested on: ATF4; assay: ATF4 western blot in Mut6 cells; type: cell-based, mouse
# Experimental: (§4) Mut6 tumor cells and MEFs were treated by DMSO or 1 μM 12M11 for the indicated times. Cell lysate was prepared by RIPA buffer with phosphatase inhibitor (Thermo) and protease inhibitor (Roche). Antibodies are purchased from Santa Cruz (ATF4), Cell Signaling (pS6, S6, AMPK, and pAMPK), and Millipore (Gapdh).
# [10] = tested on: Phospho-S6; assay: p-S6 western blot in Mut6 cells; type: cell-based, mouse
# Experimental: as §4
SMILES,Buffer Stability [1],half-life at 2 μM [2],EC50 [3],also measured
CSc1ccc(-c2n(CC(=O)OC3C[C@H](C)CC[C@H]3C(C)C)c3ccccc3[n+]2C)cc1.[I-] (some centres unmarked),100%,10 min,0.1 to 1 µM,–
CC(C)[C@@H]1CC[C@@H](C)CC1OC(=O)Cn1c(-c2ccccc2)[n+](C)c2ccccc21.[I-] (some centres unmarked),97%,10.6 min,0.1 to 1 µM,–
CC(C)[C@@H]1CC[C@@H](C)CC1OC(=O)Cn1c(-c2cccc(Br)c2)[n+](C)c2ccccc21.[I-] (some centres unmarked),94%,29 min,0.1 to 1 µM,–
CC(C)[C@@H]1CC[C@@H](C)CC1OC(=O)Cn1c(-c2ccc(N(C)C)cc2)[n+](C)c2ccccc21.[I-] (some centres unmarked),9%,8 min,< 0.1 µM,–
CC(C)[C@@H]1CC[C@@H](C)CC1OC(=O)Cn1c(-c2ccc(N=[N+]=[N-])cc2)[n+](C)c2ccccc21.[I-] (some centres unmarked),96%,26 min,0.1 to 1 µM,half-life [4]: 26 min
COc1ccc(-c2n(CC(=O)OC3C[C@H](C)CC[C@H]3C(C)C)c3ccccc3[n+]2C)cc1.[I-] (some centres unmarked),100%,15 min,0.1 to 1 µM,–
Cc1ccc(-c2n(CC(=O)OC3C[C@H](C)CC[C@H]3C(C)C)c3ccccc3[n+]2C)cc1.[I-] (some centres unmarked),95%,24 min,0.1 to 1 µM,–
CC(C)[C@@H]1CC[C@@H](C)CC1OC(=O)Cn1c(-c2ccc([N+](=O)[O-])cc2)[n+](C)c2ccccc21.[I-] (some centres unmarked),100%,90 min,1 to 5 µM,half-life [4]: 139 min
"C[C@@H]1C[C@@H]([C@H](O)CC2CC(=O)NC(=O)C2)C(=O)[C@@H](C)C1 [cycloheximide, reference compound]",–,–,–,activity against astrocytes [5]: sensitive; activity against Mut6 cells [3]: sensitive
Cc1ccccc1-c1n(CC(=O)OC2C[C@H](C)CC[C@H]2C(C)C)c2ccccc2[n+]1C.[I-] (some centres unmarked),100%,73 min,0.1 to 1 µM,–
CC(C)[C@@H]1CC[C@@H](C)CC1OC(=O)Cn1c(-c2cccc(C(F)(F)F)c2)[n+](C)c2ccccc21.[I-] (some centres unmarked),100%,240 min,0.1 to 1 µM,half-life [4]: > 240 min
CC(C)[C@@H]1CC[C@@H](C)CC1OC(=O)Cn1c(-c2cccc(F)c2)[n+](C)c2ccccc21.[I-] (some centres unmarked),100%,11 min,0.1 to 1 µM,–
CC(C)[C@@H]1CC[C@@H](C)CC1OC(=O)Cn1c(-c2ccc(O)cc2)[n+](C)c2ccccc21.[I-] (some centres unmarked),114%,9.8 min,1 to 5 µM,half-life [4]: 133 min
"N#CC(C#N)=NNc1ccc(OC(F)(F)F)cc1 [FCCP, reference compound]",–,–,–,oxidative phosphorylation / mitochondrial membrane potential by TMRE staining [6]: impairs oxidative phosphorylation
C=C(C)[C@H]1Cc2c(ccc3c2O[C@@H]2COc4cc(OC)c(OC)cc4[C@@H]2C3=O)O1 [rotenone],–,–,–,activity against astrocytes [5]: sensitive; ATP levels (% change from basal) [7]: increase; ATP levels (% change from basal) [8]: decrease significantly; ATF4 protein level [9]: induction; Phospho-S6 protein level [10]: suppression; activity against Mut6 cells [3]: sensitive
CC(C)[C@@H]1CC[C@@H](C)CC1OC(=O)Cn1c(-c2ccccc2[N+](=O)[O-])[n+](C)c2ccccc21.[I-] (some centres unmarked),100%,47 min,0.1 to 1 µM,half-life [4]: > 240 min
CC(C)[C@@H]1CC[C@@H](C)CC1OC(=O)Cn1c(-c2cccc([N+](=O)[O-])c2)[n+](C)c2ccccc21.[I-] (some centres unmarked),133%,330 min,1 to 5 µM,half-life [4]: > 240 min

SMILES,Buffer Stability [1],half-life at 2 μM [2],EC50 [3],also measured
CCc1n(CC(=O)OC)c2ccccc2[n+]1C,–,–,> 5 µM,–
CC[C@H]1/C=C/C=C/C[C@@H](C)[C@H](O)[C@@](C)(O)C(=O)[C@@H](C)[C@H](O)[C@@H](C)C(=O)[C@@H](C)[C@H](O)[C@@H](C)/C=C/C(=O)O[C@@H]2[C@H](C)[C@H](CC1)O[C@]1(CC[C@H](C)[C@H](C[C@@H](C)O)O1)[C@H]2C [oligomycin],–,–,–,activity against astrocytes [5]: sensitive; ATP levels (% change from basal) [7]: increase; ATP levels (% change from basal) [8]: decrease significantly; ATF4 protein level [9]: induction; Phospho-S6 protein level [10]: suppression; activity against Mut6 cells [3]: sensitive
CC(C)[C@@H]1CC[C@@H](C)CC1OC(=O)Cn1c(-c2ccc(N(C)C)cc2)[n+](Cc2ccccc2)c2ccccc21 (some centres unmarked),–,–,< 0.1 µM,–
CC(C)[C@@H]1CC[C@@H](C)CC1OC(=O)Cn1c(-c2ccc(N3CCCCC3)cc2)[n+](C)c2ccccc21 (some centres unmarked),–,–,< 0.1 µM,–
CCc1n(CC(=O)OCCOC)c2ccccc2[n+]1C,–,–,> 5 µM,–
CCc1n(CC(=O)O[C@H]2CC[C@H](C)CC2)c2ccccc2[n+]1C,–,–,> 5 µM,–
CCc1n(CC(=O)OC2C[C@H](C)CC[C@H]2C(C)C)c2cc([N+](=O)[O-])ccc2[n+]1C (some centres unmarked),–,–,1 to 5 µM,–
COC(=O)Cn1c(-c2ccco2)nc2ccccc21,–,–,> 5 µM,–
COC(=O)Cn1c(-c2ccccn2)nc2ccccc21,–,–,> 5 µM,–
CCc1n([C@@H](C(=O)OC2C[C@H](C)CC[C@H]2C(C)C)C2CCCC2)c2ccccc2[n+]1C (some centres unmarked),–,–,< 0.1 µM,–
COc1ccc(-c2n([C@H](C)C(=O)OC3C[C@H](C)CC[C@H]3C(C)C)c3ccccc3[n+]2C)cc1 (some centres unmarked),–,–,< 0.1 µM,–
CCc1n(CC(=O)O[C@@H]2C[C@H](C)CC[C@H]2C(C)C)c2ccccc2[n+]1C.[Cl-],100%,–,0.1 to 1 µM,Plasma T1/2 [2]: < 4 min
CCc1n([C@H](C)C(=O)OC2C[C@H](C)CC[C@H]2C(C)C)c2ccccc2[n+]1C (some centres unmarked),–,–,< 0.1 µM,–
CC(C)[C@@H]1CC[C@@H](C)CC1OC(=O)Cn1c(-c2cccc(C#N)c2)[n+](C)c2ccccc21 (some centres unmarked),–,–,> 5 µM,–
CC(C)[C@@H]1CC[C@@H](C)CC1OC(=O)Cn1c(-c2cc(Cl)cc(Cl)c2)[n+](C)c2ccccc21.[I-] (some centres unmarked),91%,39 min,0.1 to 1 µM,–
CCc1n(CC(=O)OC2C[C@H](C)CC[C@H]2C(C)C)c2cc(C)ccc2[n+]1C (some centres unmarked),–,–,< 0.1 µM,–
CCc1n(CC(=O)OC2C[C@H](C)CC[C@H]2C(C)C)c2cc(OC)ccc2[n+]1C (some centres unmarked),–,–,< 0.1 µM,–
